{
  "source": "patent US20220128557A1",
  "about": "“[…] METHODS FOR REAL-TIME CELL MONITORING” (PHENOFAST LTD., priority 2019, published 2022)",
  "tested_on": "E. coli",
  "assay": "Classical method of serial antibiotic dilution for MIC",
  "assay_type": "cell-based",
  "conditions": "FIG. 7E",
  "procedure": "FIGS. 7A-7E: (7A-7D) Scatter plots, with best fit lines of optical output measured by intensity shift as a function of time, performed on a series of 6 semi-stable sucrose coated grating units in parallel inoculated with E. coli cells and treated an hour later with (7A) 0 μg, (7B) 2.5 μg, (7C) 5.0 μg, and (7D) 7.5 μg of G418. (7E) A photograph of the classical serial dilution method for determining the MIC of G418 for treating E. coli.\nBy monitoring the diffraction over time, a range for minimum inhibitory concentration (MIC) was established (FIG. 7A-D). A control well received no antibiotic and normal logarithmic growth was observed (FIG. 7A). […] This would place the MIC at between 2.5 and 5.0 which was the same as the range (2.3-4.7 μg) found by the classical method of serial antibiotic dilution (FIG. 7E).",
  "data": [
    {"smiles": "CN[C@@H]1[C@@H](O)[C@@H](O[C@@H]2[C@@H](O)[C@H](O[C@H]3O[C@H]([C@@H](C)O)[C@@H](O)[C@H](O)[C@H]3N)[C@@H](N)C[C@H]2N)OC[C@]1(C)O", "note": "[G418]", "values": [
      {"measurement": "MIC range found by classical serial antibiotic dilution", "result": "2.3 to 4.7", "unit": "µg"}
    ]}
  ]
}
